Key:
Assay type in all cases: cell-based
[1] = tested on: HH cells (human cutaneous T-cell lymphoma cells); test: Proliferation assay (alamarBlue) with HH cells
Text: (§1) The antiproliferative activities of compounds falling under formula (Ia), (Ib) and (Ic), respectively, were investigated on cells or cell lines originating from a disorder of the haematopoietic system, including the myeloid cell compartment and the lymphoid cell compartment (T-cells and B-cells), the neuroendocrine system, the cervix, the breast, the ovaries, the lung, the gastrointestinal tract, and the mucosal epithelium, as well as from the skin epithelium and from the muscle. To this end, HL-60 cells, NB-4 cells, HH cells, RPMI-8402 cells, TANOUE cells, TT cells, HeLa cells, MDA-MB-231 cells, FU-OV-1 cells, LOU-NH91 cells, 23132/87 cells, CAL-27 cells, BHY cells, SCC-25 cells, A-431 cells, human primary epidermal keratinocytes (HPEK), and C2C12 cells were seeded into 96-well plates suitable for fluorescence assays (CORNING #3598) at following initial cell numbers: 1000 cells per well for HL-60; 1000 cells per well for NB-4; 5000 cells per well for HH; 5000 cells per well for RPMI-8402; 1500 cells per well for TANOUE; 9000 cells per well for TT; 2000 cells per well for HeLa; 3000 cells per well for MDA-MB-231; 3000 cells per well for FU-OV-1; 4000 cells per well for LOU-NH91; 2000 cells per well for 23132/87; 2000 cells per well for CAL-27; 1500 cells per well for BHY; 1500 cells per well for SCC-25; 700 cells per well for A-431; 1000 cells per well for HPEK; 500 cells per well for C2C12. The cells were treated with compounds at indicated final concentrations (diluted from the 1000× stock-solutions in DMSO to a final DMSO concentration of 0.1% v/v in H2O (Water For Injection, WFI, Fisherscientific #10378939)) or with the empty carrier DMSO at 0.1% v/v as control for 5 days. At day 5 after starting the treatments the cells were subjected to the alamarBlue® Proliferation Assay (Bio-Rad Serotec GmbH, BUF012B) according to the protocol of the manufacturer. The readout was taken with a multi-well plate-reader in the fluorescence mode with applying a filter for excitation at 560 nm (band width 10 nm) and for emission at 590 nm (band width 10 nm). Control treatments for growth inhibition with commercial compounds such as Methotrexate (MTREX) and Resveratrol (RES) were included on every plate. Some of the test compounds of the present invention were obtained and applied as their salts. According cases are indicated in the column “Specification” in Table 55 to Table 92 and by their sum formula in Table 93.
(§2) The assays were performed in duplicate or more replicates of independent single experiments each containing a six-fold replicate for every condition. For every individual plate, the measured fluorescence intensity values of the conditions with compound treatment were normalized against the corresponding equally weighted arithmetic mean of the fluorescence intensity values of the six DMSO treated control wells in order to obtain the relative values to a baseline level of 1.0.
(§3) Two independent outlier analyses were performed according to the methods by Peirce and Chauvenet (Ross, Journal of Engineering Technology 2003, 1-12). Outliers confirmed by at least one of the methods were excluded from the calculations but not more than one value out of six per compound within a single experiment. The weighted arithmetic mean (here abbreviated as AVEw) for each compound was calculated from the normalized values over all independent replicates of the single experiments comprising the six replicates each. The corresponding standard deviation for the weighted arithmetic mean was calculated according to the method described by Bronstein et al. (Bronstein, Semendjajew, Musiol, Müihlig, Taschenbuch der Mathematik, 5th edition 2001 (German), publisher: Verlag Harri Deutsch, Frankfurt am Main and Thun) and was combined with the Gauß' error propagation associated with the performed calculation for the normalization. The resulting standard deviation is herein referred to as “combined standard deviation”. […]

[2] = tested on: A-431 cells (human epidermoid squamous cell carcinoma cells); test: Proliferation assay (alamarBlue) with A-431 cells; details: for Activity Range (weighted arithmetic mean AVEw of normalized fluorescence intensity, relative to DMSO basis level 1.0): 20 μM; for Activity Range (weighted arithmetic mean of normalized fluorescence intensity, relative to DMSO basis level 1.0): control at 40 μM
Text: as §1, §2, §3

[3] = tested on: HeLa cells (human cervical adenocarcinoma cells); test: Proliferation assay (alamarBlue) with HeLa cells
Text: as §1, §2, §3

[4] = tested on: FU-OV-1 cells (human ovarian carcinoma cells); test: Proliferation assay (alamarBlue) with FU-OV-1 cells
Text: as §1, §2, §3

[5] = tested on: human epidermal keratinocyte progenitors (HPEKp, pooled); test: Proliferation assay (alamarBlue) with HPEKp cells
Text: (§4) The antiproliferative activities of compounds falling under formula (Ia), (Ib) and (Ic), respectively, were investigated on cells or cell lines originating from a disorder of the haematopoietic system, including the myeloid cell compartment and the lymphoid cell compartment (T-cells and B-cells), the neuroendocrine system, the cervix, the breast, the ovaries, the lung, the gastrointestinal tract, and the mucosal epithelium, as well as from the skin epithelium and from the muscle. To this end, HL-60 cells, NB-4 cells, HH cells, RPMI-8402 cells, TANOUE cells, TT cells, HeLa cells, MDA-MB-231 cells, FU-OV-1 cells, LOU-NH91 cells, 23132/87 cells, CAL-27 cells, BHY cells, SCC-25 cells, A-431 cells, human primary epidermal keratinocytes (HPEK), and C2C12 cells were seeded into 96-well plates suitable for fluorescence assays (CORNING #3598) at following initial cell numbers: 1000 cells per well for HL-60; 1000 cells per well for NB-4; 5000 cells per well for HH; 5000 cells per well for RPMI-8402; 1500 cells per well for TANOUE; 9000 cells per well for TT; 2000 cells per well for HeLa; 3000 cells per well for MDA-MB-231; 3000 cells per well for FU-OV-1; 4000 cells per well for LOU-NH91; 2000 cells per well for 23132/87; 2000 cells per well for CAL-27; 1500 cells per well for BHY; 1500 cells per well for SCC-25; 700 cells per well for A-431; 1000 cells per well for HPEK; 500 cells per well for C2C12. […] The readout was taken with a multi-well plate-reader in the fluorescence mode with applying a filter for excitation at 560 nm (band width 10 nm) and for emission at 590 nm (band width 10 nm). […]
as §2, with “1.0. […]” for “1.0.”

[6] = tested on: C2C12 cells (murine myoblast cells); test: Proliferation assay (alamarBlue) with C2C12 cells
Text: as §4
as §2, with “1.0. […]” for “1.0.”

[7] = tested on: TANOUE cells (human B cell leukemia cells); test: Proliferation assay (alamarBlue) with TANOUE cells; details: Homo sapiens, B-cell
Text: as §1, §2, §3

Oc1ccc(C=Cc2cc(O)cc(O)c2)cc1 [RES, Resveratrol]
Activity Range: weighted arithmetic mean (AVEw) of normalized fluorescence intensity, proliferation assay with HH cells ([1]; 20 μM, relative to DMSO basis level 1.0, Table 59 (novel compounds)): 0.6 ± 0.1
Activity Range: weighted arithmetic mean (AVEw) of normalized fluorescence intensity, proliferation assay with HH cells ([1]; control at 40 μM, relative to DMSO basis level 1.0, Table 59): 0.4 ± 0.1
Activity Range: weighted arithmetic mean (AVEw) of normalized fluorescence intensity, proliferation assay with HH cells ([1]; control at 40 μM, relative to DMSO basis level 1.0, Table 60): 0.4 ± 0.1
Activity Range (weighted arithmetic mean AVEw of normalized fluorescence intensity, relative to DMSO basis level 1.0) ([2]; Table 84 (novel compounds)): 0.6 ± 0.0
Activity Range (weighted arithmetic mean AVEw of normalized fluorescence intensity, relative to DMSO basis level 1.0) ([2]; Table 85 (compounds disclosed in PCT/EP2018/054686)): 0.6 ± 0.0
Activity Range (weighted arithmetic mean of normalized fluorescence intensity, relative to DMSO basis level 1.0) ([2]; Table 84): 0.2 ± 0.0
Activity Range (weighted arithmetic mean of normalized fluorescence intensity, relative to DMSO basis level 1.0) ([2]; Table 85): 0.2 ± 0.0
Activity Range: weighted arithmetic mean (AVEw) of normalized fluorescence intensity relative to DMSO basis level 1.0 ([3]; compound at 20 μM, Table 67 (novel compounds)): 0.9 ± 0.0
Activity Range: weighted arithmetic mean (AVEw) of normalized fluorescence intensity relative to DMSO basis level 1.0 ([3]; compound at 20 μM, Table 68 (compounds of PCT/EP2018/054686)): 0.9 ± 0.0
Activity Range: weighted arithmetic mean (AVEw) of normalized fluorescence intensity relative to DMSO basis level 1.0 ([3]; control at 40 μM, Table 67): 0.4 ± 0.1
Activity Range: weighted arithmetic mean (AVEw) of normalized fluorescence intensity relative to DMSO basis level 1.0 ([3]; control at 40 μM, Table 68): 0.4 ± 0.1
Activity Range: weighted arithmetic mean (AVEw) of normalized fluorescence intensity relative to DMSO basis level 1.0 ([4]; compound at 20 μM, Table 71 (novel compounds)): 0.7 ± 0.0
Activity Range: weighted arithmetic mean (AVEw) of normalized fluorescence intensity relative to DMSO basis level 1.0 ([4]; compound at 20 μM, Table 72 (compounds of PCT/EP2018/054686)): 0.7 ± 0.0
Activity Range: weighted arithmetic mean (AVEw) of normalized fluorescence intensity relative to DMSO basis level 1.0 ([4]; control at 40 μM, Table 71): 0.4 ± 0.0
Activity Range: weighted arithmetic mean (AVEw) of normalized fluorescence intensity relative to DMSO basis level 1.0 ([4]; control at 40 μM, Table 72): 0.4 ± 0.0
Activity Range: weighted arithmetic mean (AVEw) of normalized fluorescence intensity, relative to DMSO basis level of 1.0 ([5]; control at 20 μM): 0.2 ± 0.0
Activity Range: weighted arithmetic mean (AVEw) of normalized fluorescence intensity, relative to DMSO basis level of 1.0 ([5]; control at 40 μM): 0.2 ± 0.0
Activity Range: weighted arithmetic mean (AVEw) of normalized fluorescence intensity, relative to DMSO basis level of 1.0 ([6]; compounds and controls at 20 μM): 0.8 ± 0.0
Activity Range: weighted arithmetic mean (AVEw) of normalized fluorescence intensity, relative to DMSO basis level of 1.0 ([6]; control at 40 μM): 0.2 ± 0.1
activity at 20 µM ([7]; compound at 20 μM, Table 63 (novel compounds), read-out: Activity Range: weighted arithmetic mean (AVEw) of normalized fluorescence intensity relative to DMSO basis level 1.0): 10%
activity at 40 µM ([7]; control at 40 μM, Table 63, read-out: Activity Range: weighted arithmetic mean (AVEw) of normalized fluorescence intensity relative to DMSO basis level 1.0): 0%
